How the values were obtained:
IKKβ-NEMO interaction = target: T1, IKKβ-NEMO interaction (Homo sapiens, UniProt Q9Y6K9); experiment: In vitro GST pull-down of IKKβ/NEMO in the presence of NBD peptides; assay type: binding; conditions: peptide 125, 500 or 1000 μM
T1 construct: bacterially expressed version of full length NEMO fused at its NH2-terminus to glutathione S-transferase; made in house; host or cells: bacteria (GST-NEMO); in vitro translation (IKKβ)
Protocol: (A) Sequences of wild-type (SEQ ID NO:18) and mutant (SEQ ID NO:19 forms of IKKβ NBD peptide. (B) GST-pull-down analysis was performed using either GST-NEMO-in vitro translated IKKβ (upper panel) or GST-IKKβ-(644-756)-in vitro translated NEMO (lower panel). The assay was performed in the absence (no peptide) or presence of increasing concentrations ([…], 500 or 1000 μM) of either mutant (MUT) (SEQ ID NO:19) or wild-type (WT) NBD (SEQ ID NO:18). (C) HeLa cells were incubated with either peptide (200 μM) for the times indicated. Following lysis, the IKK complex was immunoprecipitated using anti-NEMO and the resulting immunoblot probed with anti-IKKβ. (D) Gel image showing anti-NEMO immunoprecipitation. (E) Gel image showing anti-FLAG immunoblot. (F) HeLa cells were incubated for three hours with increasing concentrations: 50, 100 or 200 μM) of each peptide followed by treatment for fifteen minutes with TNFα (10 ng/ml) as indicated (+). Following lysis, nuclear extracts were made and 10 μg of protein from each sample was used for EMSA using a specific [^32P]-labeled κB-site probe. (G) Gel image showing anti-Phospho-C-Jun immunoblot and anti-β-Actin immunoblot. (H) HeLa cells were transfected for forty-eight hours with pBIIX-luciferase then incubated for two hours in the absence (control) or presence of mutant or wild-type NBD peptide (100 and 200 μM of each). Subsequently the cells were either treated with TNFα (10 ng/ml) as indicated (toe panel) or left untreated (bottom panel) for a further four hours after which NF-κB activation was measured by luciferase assay.
The sequences of the two NBD peptides used in t its study were [[…]][…] (wild-type) (SEQ ID NO: 18) and [[…]][…] (mutant) (SEQ ID NO: 19; FIG. 5A). The antennapedia homeodomain sequence (Derossi et al., (1994) J. Biol. Chem. 269, 10444-10450; U.S. Pat. No. 5,888,762; U.S. Pat. No. 6,015,787; U.S. Pat. No. 6,080,724) is bracketed and the positions of the W to A mutations are underlined. Both peptides were dissolved in DMSO to a stock concentration of 20 mM. For all experiments DMSO alone controls were no different from no peptide controls.
The mutant was identical except that the tryptophan residues (W739 and W741) in the NBD were mutated to alanine. […] To test the ability of the NBD peptides to enter cells and inhibit the IKKβ-NEMO interaction, HeLa cells were incubated with the peptides for different time periods and immunoprecipitated the IKK complex using anti-NEMO. In agreement with the in vitro data (FIG. 5B), wild-type but not mutant disrupted the formation of the endogenous IKK complex (FIG. 5C).

[1] = test system: mice (zymosan-induced peritonitis); experiment: Zymosan-induced peritonitis in mice; assay type: in vivo, mice (C57BL/6NCR); conditions: for PMN accumulation / exudate formation: NBD peptides 200 mg/ml i.p. with zymosan
Protocol: In a second model, peritonitis was induced in mice by intraperitoneal (i.p.) injection of zymosan either alone or in combination with dexamethasone or the NBD peptides. For zymosan-induced peritonitis, measurement of peritoneal exudates and inflammatory cell collections from replicate groups of age and sex matched mice (C57BL/6NCR) were performed as previously described (Getting et al., (1998) Immunology 95, 625-630). Groups of animals were injected concomitantly with one ml zymosan (1 mg/ml) and either dexamethasone (100 mg/ml) or the NBD peptides (200 mg/ml). The concentration of NOX (nitrate plus nitrite) present in the inflammatory exudates was measured using a colorimetric assay kit (Alexis Corporation) according to the manufacturers protocol.

E-selectin = E-selectin expression in primary HUVEC (FACS); assay type: cell-based, human; conditions: for TNFα-induced expression of E-selectin: peptide 100 μM 2 h, TNFα 10 ng/ml 6 h
Protocol: (A) Primary HUVEC were pre-incubated for two hours with wild-typo (middle) or mutant (bottom) NBD peptides (100 μM) then stimulated with TNFα (10 ng/ml) for a further six hours. Control cells received no peptide. Cells were stained with either anti-E-selectin (H4/18) or a non-binding control antibody (K16/16) and expression was measured FACS (FACSort, Becton Dickinson). The profiles show E-selectin staining in the absence (shaded) and presence (solid line) of TNFα and control antibody staining under the sane conditions (dashed line, no TNFα; dotted line, TNFα). (B) % control release of NO2— in various samples. (C) PMA-induced ear edema in mice topically treated with either vehicle (VEH), dexamethasone (DEX) or NBD peptides was induced and measured as described in Example 8. Data are presented as mean differences in ear thickness ±SD (*=p<0.05 compared with both untreated control and vehicle). (D) The effects of the NBD peptide compared with the effect of dexamethasone (DEX) on Zymosan (ZYM)-induced peritonitis in mice were determined as described again in Example 8. Control mice were injected with phosphate-buffered saline (PBS).
Many proteins involved in the initiation and maintenance of inflammatory responses require NF-κB activation for induced expression of their genes (Ghosh et al., (1998) Annu. Rev. Immunol. 16, 225-260; May & Ghosh, (1998) Immunol. Today 19, 80-88). One such protein, E-selectin, is a leukocyte adhesion molecule expressed on the luminal surface of vascular endothelial cells after activation by pro-inflammatory stimuli such as IL-1 or TNFα (Pober et al., (1986) J. Immunol. […], 1680-1687; Bevilacqua et al., (1987) Proc. Natl. Acad. Sci. USA 84, 9238-9242; Collins et al., (1995) FASEB J. 9, 899-909). Expression of E-selectin and other NF-κB-dependent adhesion molecules is crucial for the arrest and recruitment of leukocytes into sites of acute and chronic inflammation. […]

[2] = NBD peptide 200 mg/ml i.p. with zymosan

T1 sequence (Q9Y6K9 whole entry, the tested form may be a part): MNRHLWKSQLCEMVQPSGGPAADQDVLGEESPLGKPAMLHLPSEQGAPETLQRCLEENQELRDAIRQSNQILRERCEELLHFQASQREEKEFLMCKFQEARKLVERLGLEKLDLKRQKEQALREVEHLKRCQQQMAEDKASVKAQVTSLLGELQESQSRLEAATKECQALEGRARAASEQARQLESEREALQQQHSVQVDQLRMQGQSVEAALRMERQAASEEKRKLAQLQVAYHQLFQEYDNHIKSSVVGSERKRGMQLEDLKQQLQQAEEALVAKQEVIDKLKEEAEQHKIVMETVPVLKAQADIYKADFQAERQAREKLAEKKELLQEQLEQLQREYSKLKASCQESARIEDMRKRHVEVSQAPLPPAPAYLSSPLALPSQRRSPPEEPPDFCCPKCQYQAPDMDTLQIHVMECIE

| Substance | inhibition of in vitro pull-down of [35S]-labeled IKKβ by GST-NEMO (IKKβ-NEMO interaction) | inhibition of in vitro pull-down of [35S]-labeled NEMO by GST-IKKβ-(644-756) (IKKβ-NEMO interaction) | effect on NOX in peritoneal exudates [1, 2] | PMN accumulation [1] | exudate formation [1] | TNFα-induced expression of E-selectin (E-selectin) | reduction of NOX in peritoneal exudates [1, 2] | E-selectin expression in the absence of TNFα (E-selectin; peptide 100 μM) |
| --- | --- | --- | --- | --- | --- | --- | --- | --- |
| [DRQIKIWFQNRRMKWKK]TALDASALQTE (DRQIKIWFQNRRMKWKKTALDASALQTE; Description of Artificial Sequence: Synthetic Mutant NBD peptide) [identical to wild-type NBD peptide except W739 and W741 mutated to alanine, reference compound] | not | not | no effect | no effect | no effect | not |  |  |
| [DRQIKIWFQNRRMKWKK]TALDWSWLQTE (DRQIKIWFQNRRMKWKKTALDWSWLQTE; Description of Unknown: Unknown wildtype NBD peptide) [wild-type NBD peptide] | dose-dependently inhibited | dose-dependently inhibited |  | significantly reduced | significantly reduced | significantly reduced | 66±4% | induced low level expression |

— patent US8242240B2, “Anti-inflammatory compounds and uses thereof” (Yale University, priority 2000, dated 2012)
